For 31 compounds, tissue uptake and Kd results are on record in US12427212B2, “Nectin-4 binding miniproteins, conjugates and uses thereof” (Aktis Oncology, Inc., priority 2023, dated 2025).

The term tissue uptake denotes the share of the injected amount in each gram of the tissue. The term pKd denotes the Kd on a negative log10 scale, so that one unit is a factor of ten.

pKd: −log10 of the molar value. Read-outs that look alike come from different tables or passages of the source. Bridges are numbered along the chain shown (N, C = ends). [ ]: non-standard residue; d: D form. The star is where a group is joined. DOTA = O=C(O)CN1CCN(CC(=O)O)CCN(CC(=O)*)CCN(CC(=O)O)CC1; Biotin = O=C1N[C@H]2[C@H](CS[C@H]2CCCCC(=O)*)N1; Lys(Me3) = C[N+](C)(C)CCCC[C@H](N)C(=O)O; Cit = NC(=O)NCCC[C@H](N)C(=O)O; PEG4 = NCCOCCOCCOCCOCCC(=O)O

Series [1] can be described thus: In vivo biodistribution of 111In-labeled miniproteins by SPECT/CT, HT-1376 xenograft. On the set-up: species or system mouse. Conditions: female, athymic nude, mouse, in vivo. An excerpt:
HT-1376 is a human cell line that expresses Nectin-4.
Humane endpoints: All animals were euthanized following the final imaging time point and carcasses were discarded according to IACUC protocols.
Image Processing: Images were generated as SPECT/CT pairs with the SPECT reported in units of activity.
Image generation: After the preprocessing described in A, individual maximum intensity projections (MIPs) were created with VivoQuant software for each subject at each time point and scaled in percent injected dose per gram (% ID/g). The CT for each image was windowed from −500 to 4500 Hounsfield Units (HU). The SPECT was windowed at various ranges to highlight different regions of uptake. Images were then stitched together using Image Magick based python tools to create montages of subjects over time and time points over groups.

The target in series [2] is T1, Nectin-4 (Homo sapiens, UniProt Q96NY8).
T1 sequence (Q96NY8 32-510): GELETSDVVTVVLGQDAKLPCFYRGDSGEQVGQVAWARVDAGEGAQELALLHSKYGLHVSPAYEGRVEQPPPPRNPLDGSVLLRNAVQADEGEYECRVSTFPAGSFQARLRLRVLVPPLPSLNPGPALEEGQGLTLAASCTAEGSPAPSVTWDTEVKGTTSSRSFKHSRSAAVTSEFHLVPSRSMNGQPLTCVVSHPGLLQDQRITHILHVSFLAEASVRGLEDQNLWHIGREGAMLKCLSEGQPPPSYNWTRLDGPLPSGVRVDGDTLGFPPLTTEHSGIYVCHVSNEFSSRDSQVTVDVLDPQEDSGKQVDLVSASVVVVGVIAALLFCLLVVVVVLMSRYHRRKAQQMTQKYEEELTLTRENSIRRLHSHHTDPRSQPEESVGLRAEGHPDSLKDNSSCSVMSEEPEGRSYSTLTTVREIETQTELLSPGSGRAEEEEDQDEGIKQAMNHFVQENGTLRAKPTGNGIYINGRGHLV
The series can be described thus: DELFIA whole cell binding assay, equilibrium binding affinity (KD), Table 2B. The procedure:
A whole cell binding assay was used to estimate the equilibrium binding affinity (KD) or binding inhibition constant (Ki) of miniprotein ligands to cells expressing a target of interest. Cells were dispensed into a 384-well plate and incubated at 37° C., in 5% CO2 overnight. The next day cells were gently washed once in assay buffer prior to addition of europium chelated ligand. For KD determination, a miniprotein conjugated with europium chelate (DOTA or DTPA) in the presence or absence of 100-fold excess un-conjugated ligand was incubated with cells over 12 different concentrations ranging from 100 times below and above expected KD values. For Ki determination, a single concentration (KD equivalent concentration) of europium-chelate miniprotein was added to each well followed immediately by the addition of unconjugated competing ligand over 12 different concentrations ranging from 100 times below and above expected Ki values as before. The plate was incubated for 1.5 h at room temperature to reach binding equilibrium. Cells were then washed three times at room temperature with 1×PBS followed by the addition of 2 M HCl and incubated for two h at 37° C. Following this step, 2 M NaOH and fluorescent inducer solution were added to each well and incubated for 30 minutes at room temperature according to the manufacturer's protocol (Perkin-ELMER DELFIA assay). Plates were read on an Envision plate reader and a curve-fitting model was applied to estimate KD and Ki values using GraphPad Prism software. Mean DELFIA K; values for exemplary miniproteins are recorded in TABLE 9A.

The mark [3] stands for this setting: Table 2B, binding to Nectin-4, read-out: Binding Affinity (KD).

Turning to `CC[C@H](C)[C@@H]1NC(=O)[C@H](Cc2ccc(O)cc2)NC(=O)[C@H](Cc2ccc(O)cc2)NC(=O)[C@@H]2CSSC[C@@H](C(=O)O)NC(=O)CNC(=O)[C@H](CC(C)C)NC(=O)[C@H](CC(N)=O)NC(=O)[C@H](CCC(=O)O)NC(=O)[C@H](CC(C)C)NC(=O)[C@H]([C@@H](C)CC)NC(=O)[C@H](CCC(=O)O)NC(=O)[C@H](CCC(=O)O)NC(=O)[C@H]([C@@H](C)CC)NC(=O)[C@H](CSSC[C@H](NC(C)=O)C(=O)N[C@@H](CCC(=O)O)C(=O)N[C@@H](Cc3ccc(O)cc3)C(=O)N[C@@H](CC(=O)O)C(=O)N[C@@H](CCC(=O)O)C(=O)N[C@@H](CCC(N)=O)C(=O)N[C@@H](Cc3ccccc3)C(=O)N[C@@H](Cc3ccccc3)C(=O)N[C@@H]([C@@H](C)O)C(=O)N[C@@H](C)C(=O)N[C@@H](CC(C)C)C(=O)N[C@@H](CCCCN)C(=O)N[C@@H](CCCNC(=N)N)C(=O)N[C@@H](CC(C)C)C(=O)N[C@@H](CCCNC(=N)N)C(=O)NCC(=O)NCC(=O)N[C@@H](CC(=O)O)C(=O)N[C@@H]([C@@H](C)CC)C(=O)N2)NC(=O)[C@H](CC(C)C)NC(=O)[C@H](CC(=O)O)NC(=O)[C@@H]2CCCN2C(=O)[C@H](CC(C)C)NC(=O)[C@H]([C@@H](C)O)NC(=O)[C@H](CC(N)=O)NC(=O)[C@H](Cc2ccccc2)NC(=O)[C@H](CCC(N)=O)NC(=O)[C@H](C)NC(=O)[C@H](CO)NC1=O` [Compound C100], in series [1], the tissue uptake at 4 h came out at 112 %ID/g and the tissue uptake at 24 h was determined as 61.8 %ID/g.

Take “Ac-CEYDEEFFAGLKRLRRGDICYYIKKKFDKVPDLCIEEILDKLGC-OH (disulfide 1-34, 20-44) [Compound C14]”: the pKd in series [2] (setting [3]) was 7.85. Same read-out and setting: with “Ac-CEYDEEFFKGLKRLRGGDICYYIKKKFKKVPKLCIEEILDKLGC-OH (disulfide 1-34, 20-44) [Compound C80]” the figure was 8.57.

Consider “Ac-CEYDEEFFLGLKRLRGGDICYYIKKKFKKVPDLCIEEILDKLGC-OH (disulfide 1-34, 20-44) [Compound C34]”, for which the pKd in series [2] (setting [3]) is 8.50. With “Ac-CEYDEEFFLGLKRLRGGDICYYIKKKFKKVPDLCIEEILEKLGC-OH (disulfide 1-34, 20-44) [Compound C60]”, the pKd in series [2] (setting [3]) is 8.50. The same measure, in the same setting: with “Ac-CEYDEEFFLGLKRLRGGDICYYIKKKFKKVPELCIEEILKKLGC-OH (disulfide 1-34, 20-44) [Compound C67]” the figure was 8.58; with “Ac-CEYDEEFFTALARLRGGDICYYIQAKFQYLPGLCIEEILDNLGCS-OH (disulfide 1-34, 20-44) [Compound C124]”, 8.96. Still for that read-out and setting: as for “Ac-CEYDEKFFTGLKRLRGGDICYYIKKKFKKVPKLCIEEILDKLGC-OH (disulfide 1-34, 20-44) [Compound C70]”, the figure is 8.66. For “{Biotin-PEG4}-CDYDEEFFTALA[Cit]LRGGDICEYIQAKFQYLPGLCIEEILDNLGCS-OH (disulfide 1-34, 20-44) [Compound C176]”, the pKd in series [2] was 8.89. Same read-out and setting: as for “{Biotin-PEG4}-CDYDEEFFTALKRLRGDDICSYIQASFQYLPGLCIEEILDNLGCS-OH (disulfide 1-34, 20-44) [Compound C192]”, the figure is 8.89. Same read-out and setting: with “{Biotin-PEG4}-CDYDEEFFTALKRLRGGDICEYIQASFQYLPGLCIEEILDNLGCS-OH (disulfide 1-34, 20-44) [Compound C188]” the figure was 8.80. Still for that read-out and setting: as for “{Biotin-PEG4}-CEYDEAFFTALARLRGGDICQYIQAKFQYLPGLCIEEILDNLGCS-OH (disulfide 1-34, 20-44) [Compound C151]”, the figure is 9.17; as for “{Biotin-PEG4}-CEYDEEFFTALARLRGGDICEYIQAKFQYLPKLCIEEILDNLGCS-OH (disulfide 1-34, 20-44) [Compound C167]”, 8.92; as for “{Biotin-PEG4}-CEYDEEFFTALARLRGGDICQYIQAKFAYVPGLCIEEILDNLGCS-OH (disulfide 1-34, 20-44) [Compound C155]”, 8.96. Consider “{Biotin-PEG4}-CEYDEEFFTALARLRGGDICYYIQAYFQYLPGLCIEEILDNLGCS-OH (disulfide 1-34, 20-44) [Compound C165]”, for which, in series [2], the pKd was 8.39. Same read-out and setting: as for “{Biotin-PEG4}-CEYDEEFFTALA[Cit]LRGDDICSYIQAKFQYLPGLCIEEILDNLGCS-OH (disulfide 1-34, 20-44) [Compound C172]”, the figure is 8.74; as for “{Biotin-PEG4}-CEYDEEFFTALA[Cit]LRGGDICEYIQAKFQYLPGLCIEEILDNLGCS-OH (disulfide 1-34, 20-44) [Compound C171]”, 8.66.

In turn, “{Biotin-PEG4}-CEYDEEFFTALA[Cit]LRGGDICSYIQAKFQYLPGLCIEEILDNLGCS-OH (disulfide 1-34, 20-44) [Compound C175]” had a pKd in series [2] of 8.64. Same read-out and setting: as for “{Biotin-PEG4}-CEYDEEFFTALKRLRGDDICEYIQASFQYLPGLCIEEILDNLGCS-OH (disulfide 1-34, 20-44) [Compound C181]”, the figure is 8.52; as for “{Biotin-PEG4}-CEYDEEFFTALKRLRGDDICYYIQASFQYLPGLCIEEILDNLGCS-OH (disulfide 1-34, 20-44) [Compound C180]”, 8.57; as for “{Biotin-PEG4}-CEYDEEFFTALKRLRGGDICEYIQASFQYLPGLCIEEILDNLGCS-OH (disulfide 1-34, 20-44) [Compound C178]”, 8.85. The compound “{Biotin-PEG4}-CEYDEEFFTALKRLRGGDICEYIQA[Lys(Me3)]FQYLPGLCIEEILDNLGCS-OH (disulfide 1-34, 20-44) [Compound C201]” showed a pKd in series [2] of 9.17.

In series [2], “{Biotin-PEG4}-CEYDEEFFTALKRLRGGDICYYIQAKFQYLPKLCIEEILDNLGCS-OH (disulfide 1-34, 20-44) [Compound C119]” gave a pKd of 9.02. On the same count and under the same terms, with “{Biotin-PEG4}-CEYDEEFFTALKRLRGGDICYYIQASFQYLPGECIEEILDNLGCS-OH (disulfide 1-34, 20-44) [Compound C177]” the figure was 8.70.

With “{Biotin-PEG4}-CEYDEQFFTALARLRGGDICEYIQAKFQYLPGLCIEEILDNLGCS-OH (disulfide 1-34, 20-44) [Compound C146]”, in series [2], the pKd was 9.27. Same read-out and setting: as for “{Biotin-PEG4}-CEYDEQFFTALKRLRGADICDYIQASFQYLPGLCIEEILDNLGCS-OH (disulfide 1-34, 20-44) [Compound C194]”, the figure is 8.96; as for “{Biotin-PEG4}-CEYDEQFFTALKRLRGGDICDYIQASFQYLPGLCIEEILDNLGCS-OH (disulfide 1-34, 20-44) [Compound C196]”, 8.80. In series [1], “{DOTA-PEG4}-CEYDEEFFTALKRLRGGDICYYIQKAFQYLPGLCIEEILDNLGCS-OH (disulfide 1-34, 20-44) [Compound C121]” yielded a tissue uptake at 4 h of 100 %ID/g and a tissue uptake at 24 h of 60.4 %ID/g.

In series [1], “{DOTA-PEG4}-CEYDEEFFTALSRLRGGDICYYIQQAFQYLPGLCIEEILDNLGCS-OH (disulfide 1-34, 20-44) [Compound C133]” showed a tissue uptake at 4 h of 43.8 %ID/g and a tissue uptake at 24 h of 20.9 %ID/g. In series [1], “{DOTA-PEG4}-CEYDEQFFTALARLRGGDICYYIQEQFATVPGLCIEEILDQLGCS-OH (disulfide 1-34, 20-44) [Compound C129]” showed a tissue uptake at 4 h of 43.5 %ID/g and a tissue uptake at 24 h of 19.9 %ID/g. The corresponding values for “{DOTA-PEG4}-CEYDEQFFTALSSLRGGDICYYIQEQFANVPGICIEEILDNLGCS-OH (disulfide 1-34, 20-44) [Compound C137]” are 78.8 %ID/g and 42.9 %ID/g.
